Assays:
[1] = Vaginal tolerance in rabbits after repeated topical administration; format: in vivo; conditions: rabbit, once daily 7 days, solution 90 and 397 mg/L
Description: To determine the safety of hydroxytyrosol, a study of vaginal tolerance in rabbits after repeated once daily administration during 7 days was performed. Hydroxytyrosol was applied as a solution.

[2] = system: X4-tropic virus (NL.4.3 Ren); test: Antiviral activity in PBMC's, X4-tropic virus; format: cell-based, HIV-1; conditions: PBMC's activated with PHA+IL-2; compared with MT-2
Description: Similar assays were carried out using peripheral blood mononuclear cells (PBMC's) for healthy donors, prior activation with PHA+IL-2 during 48 hours and maintaining with IL-2 for at least another 48 hours. In this case the number of cells per well was 250.000. In addition, infection with HIV virus with R5-tropism (JR-Ren) was also included in the assays.

[3] = molecular target: HIV-integrase (Human immunodeficiency virus type 1 group M subtype B, UniProt P04585); conditions: Huang et al. 2007; cited from earlier work
[4] = system: raltegravir resistant HIV virus (mutation 148); test: Antiviral activity against raltegravir resistant viruses; format: cell-based; conditions: viruses resistant to raltegravir
[5] = system: MT-2 cells; test: Viability assay on non-infected MT-2 cells; conditions: 48 hour
[6] = system: recombinant virus NL4.3-delta-env-VSV-Luc (HIV VSV pseudotyped virus); format: cell-based, HIV-1

## OCCc1ccc(O)c(O)c1 [Hydroxytyrosol, 4-(2-hydroxyethyl)-1,2-benzenediol]
[1]
  mean irritation value (MIV): 0.00
  morphological alterations in the vagina: no morphological alterations
[2]
  IC50 value for infection with X4-tropic: higher than in the assays with cell line MT-2
[3]
  effect on in vitro HIV-integrase activity: dose-dependent inhibitory effect
[4]
  activity against integrase resistant viruses: lack of cross resistance
[4]; listed as hydroxytyrosol
  activity against integrase resistant viruses: mantained its activity
[5]
  toxicity / cell viability: not due to toxicity
[6]
  inhibition of VSV pseudotyped viruses: inhibits VSV pseudotyped viruses
